Here are results for two molecules from patent US20240207258A1, “HETEROCYCLIC PDK1 INHIBITORS FOR USE TO TREAT CANCER” (Viracta Therapeutics, Inc., priority 2015, published 2024).

One test has as its system Molm-13. Nature of the test: MTS cell proliferation assay, Molm-13. The format is cell-based. Conditions: Homo sapiens; Molm-13, 72 hr. The method, then: (§1) Cell proliferation was measured using the CellTiter 96 Aqueous Non-Radioactive Cell Proliferation Assay (Promega). The CellTiter 96® AQueous Assay is composed of solutions of a tetrazolium compound [3-(4,5-dimethylthiazol-2-yl)-5-(3-carboxymethoxyphenyl)-2-(4-sulfophenyl)-2H-tetrazolium, inner salt; MTS] and an electron coupling reagent (phenazine methosulfate) PMS. MTS is bioreduced by cells into a formazan product that is soluble in tissue culture medium. The absorbance of the formazan product at 490 nm can be measured directly from assay plates without additional processing. The quantity of formazan product as measured by the amount of 490 nm absorbance is directly proportional to the number of living cells in culture. Cells were seeded into 96-well or 384-well clear plates in a volume of 200 μL (96-well) or 50 μL (384-well) at optimized densities ranging from 1,000 to 40,000 cells per well for 96-well plates or 1,200 to 25,000 cells per well for 384-well plates depending on cell-line. After 4-6 hr recovery, serially diluted compounds in DMSO were added to the cells using (0.1% v/v final DMSO concentration). Cells were then grown at 37° C. in a humidified incubator with 5% CO2 for 72 hr. A 20:1 [3-(4,5-dimethylthiazol-2-yl)-5-(3-carboxymethoxyphenyl)-2-(4-sulfophenyl)-2H-tetrazolium](MTS):phenazine methosulfate (PMS) solution in DPBS was made immediately before use, added to each well, and cells were incubated for 1.5 hr at 37° C. The absorbance at 490 nm was then measured using a platereader. Absorbance values were normalized as percent of control (cells incubated in the presence of 0.1% v/v DMSO). Sigmoidal dose-response curves were plotted using log(inhibitor) vs. response—Variable slope (four parameters) model with a top value constrained to 100% (GraphPad Prism version 6.00 for Windows, GraphPad Software, La Jolla California USA). […] Curves for compounds that reached a plateau were matched exactly to the measurement points. […] To determine potential of compounds of the invention to affect viability of hematological cancers, cell lines representing various tumor types were selected and tested. Human cell lines tested were: MOLM-13 (acute myeloid leukemia (AML)), MV4-11 (AML), U-2932 (ABC-diffuse large B cell lymphoma), U-937 (histiocytic lymphoma), U-266 (multiple myeloma), RPMI-8226 (multiple myeloma), CMK (megakaryoblastic cell line), SU-DHL-4 (GCB-diffuse large B cell lymphoma), KG1 (AML), Mec-1 (chronic B-cell leukemia), MOLM-16 (AML), Jeko (B-cell lymphoma), WSU-DLCL2 (B-cell lymphoma), JJN3 (plasma cell leukemia), SU-DHL-6 (GCB-diffuse large B cell lymphoma), and Z-138 (mantle cell lymphoma). In addition, two murine cell lines were tested: A20 […].

A further test relates to U-266. Nature of the test: MTS cell proliferation assay, U-266. Format: cell-based. Conditions: Homo sapiens; U-266, 72 hr. How it is done:
(§2) Cell proliferation was measured using the CellTiter 96 Aqueous Non-Radioactive Cell Proliferation Assay (Promega). The CellTiter 96® AQueous Assay is composed of solutions of a tetrazolium compound [3-(4,5-dimethylthiazol-2-yl)-5-(3-carboxymethoxyphenyl)-2-(4-sulfophenyl)-2H-tetrazolium, inner salt; MTS] and an electron coupling reagent (phenazine methosulfate) PMS. MTS is bioreduced by cells into a formazan product that is soluble in tissue culture medium. The absorbance of the formazan product at 490 nm can be measured directly from assay plates without additional processing. The quantity of formazan product as measured by the amount of 490 nm absorbance is directly proportional to the number of living cells in culture. Cells were seeded into 96-well or 384-well clear plates in a volume of 200 μL (96-well) or 50 μL (384-well) at optimized densities ranging from 1,000 to 40,000 cells per well for 96-well plates or 1,200 to 25,000 cells per well for 384-well plates depending on cell-line. After 4-6 hr recovery, serially diluted compounds in DMSO were added to the cells using (0.1% v/v final DMSO concentration). Cells were then grown at 37° C. in a humidified incubator with 5% CO2 for 72 hr. A 20:1 [3-(4,5-dimethylthiazol-2-yl)-5-(3-carboxymethoxyphenyl)-2-(4-sulfophenyl)-2H-tetrazolium](MTS):phenazine methosulfate (PMS) solution in DPBS was made immediately before use, added to each well, and cells were incubated for 1.5 hr at 37° C. The absorbance at 490 nm was then measured using a platereader. Absorbance values were normalized as percent of control (cells incubated in the presence of 0.1% v/v DMSO). Sigmoidal dose-response curves were plotted using log(inhibitor) vs. response—Variable slope (four parameters) model with a top value constrained to 100% (GraphPad Prism version 6.00 for Windows, GraphPad Software, La Jolla California USA). […] Curves for compounds that reached a plateau were matched exactly to the measurement points. […]

For a further test, the system named is RPMI-8226. Nature of the test: MTS cell proliferation assay, RPMI-8226. As to conditions: Homo sapiens; RPMI-8226, 72 hr. Format: cell-based. How it is done:
as §1
In general terms: Tetrazolium assays rely on reduction of a dye to a coloured formazan, in cell work by metabolically active cells.

For the next test, the system named is SU-DHL-4. Nature of the test: MTS cell proliferation assay, SU-DHL-4. Format: cell-based. As to conditions: Homo sapiens; SU-DHL-4, 72 hr. How it is done:
as §2

A further test has as its system Mec-1. Nature of the test: MTS cell proliferation assay, Mec-1. The format is cell-based. Conditions: Homo sapiens, MEC1; Mec-1, 72 hr. The method, then:
as §2

The next test concerns MOLM-16. Briefly: MTS cell proliferation assay, MOLM-16. Format: cell-based. As to conditions: Homo sapiens, MOLM16; MOLM-16, 72 hr. How it is done:
as §2

For the next test, the system named is WSU-DLCL2. Nature of the test: MTS cell proliferation assay, WSU-DLCL2. As to conditions: Homo sapiens, WSUDLCL2; WSU-DLCL2, 72 hr. The format is cell-based. How it is done: as §2
The test system of another test is JJN3. Nature of the test: MTS cell proliferation assay, JJN3. Format: cell-based. As to conditions: Homo sapiens, JJN-3; JJN3, 72 hr. The method, then: as §2
The next test relates to Z-138. Nature of the test: MTS cell proliferation assay, Z-138. The format is cell-based. As to conditions: Homo sapiens; Z-138, 72 hr. How it is done: as §2
The test system of a further test is A20. Briefly: MTS cell proliferation assay, A20. Format: cell-based, murine. As to conditions: Mus musculus; A20, 72 hr. The method, then: as §1
The next test has as its system C1498. Briefly: MTS cell proliferation assay, C1498. The format is cell-based, murine. Conditions: Mus musculus; for EC50: C1498, 72 hr, read-out: MTS proliferation assay. How it is done:
Cell proliferation was measured using the CellTiter 96 Aqueous Non-Radioactive Cell Proliferation Assay (Promega). […] MTS is bioreduced by cells into a formazan product that is soluble in tissue culture medium. The absorbance of the formazan product at 490 nm can be measured directly from assay plates without additional processing. The quantity of formazan product as measured by the amount of 490 nm absorbance is directly proportional to the number of living cells in culture. Cells were seeded into 96-well or 384-well clear plates in a volume of 200 μL (96-well) or 50 μL (384-well) at optimized densities ranging from 1,000 to 40,000 cells per well for 96-well plates or 1,200 to 25,000 cells per well for 384-well plates depending on cell-line. After 4-6 hr recovery, serially diluted compounds in DMSO were added to the cells using (0.1% v/v final DMSO concentration). Cells were then grown at 37° C. in a humidified incubator with 5% CO2 for 72 hr. A 20:1 [3-(4,5-dimethylthiazol-2-yl)-5-(3-carboxymethoxyphenyl)-2-(4-sulfophenyl)-2H-tetrazolium](MTS):phenazine methosulfate (PMS) solution in DPBS was made immediately before use, added to each well, and cells were incubated for 1.5 hr at 37° C. The absorbance at 490 nm was then measured using a platereader. Absorbance values were normalized as percent of control (cells incubated in the presence of 0.1% v/v DMSO). Sigmoidal dose-response curves were plotted using log(inhibitor) vs. response—Variable slope (four parameters) model with a top value constrained to 100% (GraphPad Prism version 6.00 for Windows, GraphPad Software, La Jolla California USA). […] To determine potential of compounds of the invention to affect viability of hematological cancers, cell lines representing various tumor types were selected and tested. […] In addition, two murine cell lines were tested: A20 […].

The test system of test [1] is panel of 270 different human kinases. Briefly: Kinase selectivity panel (Upstate/Millipore). Format: biochemical. Conditions: 10 μM, panel of 270 kinases. How it is done: The selectivity of Compound 1 and Compound 2 was evaluated in a panel of 270 different human kinases offered by Upstate (now Millipore).

SMILES strings stand for the structures.

In general, inhibition refers to how much of the control response was suppressed.

Take `C[C@H](NC(=O)c1nc(C#N)cnc1NCc1ccc(-c2cnc3[nH]nc(N)c3n2)cc1)c1ccc(F)c(F)c1` [Compound 1, 3-[4-(3-Amino-1H-pyrazolo[3,4-b]pyrazin-5-yl)-benzylamino]-6-cyano-pyrazine-2-carboxylic acid [1-(3,4-difluoro-phenyl)-ethyl]-amide]: the EC50 in the test on Molm-13 amounted to 0.006 µM; in the test with U-266, 0.226 µM; in the test with RPMI-8226, 0.174 µM; in the test with SU-DHL-4 it was 0.313 µM; in the test on Mec-1, 0.415 µM; in the test on MOLM-16, 0.248 µM. The EC50 with WSU-DLCL2 turned out to be 0.543 µM; in the test on JJN3, 0.846 µM; with Z-138, 0.718 µM; with A20 it was 0.156 µM; in the test with C1498, 0.053 µM. Moreover, the “number of kinases with inhibition greater than or equal to 90% (including PDK1)” value in test [1] is recorded as 18.

Consider `CNc1n[nH]c2ncc(-c3ccc(CNc4ncc(C#N)nc4C(=O)N[C@@H](C)c4ccc(F)c(F)c4)cc3)cc12` [Compound 2, 6-Cyano-3-[4-(3-methylamino-1H-pyrazolo[3,4-b]pyridin-5-yl)-benzylamino]-pyrazine-2-carboxylic acid [1-(3,4-difluoro-phenyl)-ethyl]-amide], for which the EC50 was found to be 0.003 µM in the test with Molm-13; 0.13 µM with U-266; 0.163 µM with RPMI-8226; 0.186 µM in the test with SU-DHL-4; 0.215 µM in the test on Mec-1; 0.227 µM with MOLM-16. In addition, the EC50 worked out at 0.354 µM in the test with WSU-DLCL2; 0.453 µM with JJN3; 0.684 µM in the test on Z-138; 0.114 µM in the test on A20; 0.045 µM in the test with C1498. Moreover, in the test on C1498 (C1498, 200 nM, read-out: growth inhibition), the inhibition at 0.2 µM amounted to 80%. For the same molecule, in test [1], the “number of kinases with inhibition greater than or equal to 90% (including PDK1)” value stood at 20.
